PubChem BioAssay (NCI)
Several values for one entry are separate records, joined by “and”; a condition that tells them apart may be missing. Equal values may be shown once.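 Method: 48-hour compound exposure of cells in 96-well plates, five concentrations, linear interpolation of endpoints. GI50 is the concentration that inhibits growth by half. At the TGI there is no net growth.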

Key:
Assay in all cases: inhibition of tumour cell growth, NCI panel, 48 h
CAKI-1 renal = system: CAKI-1 renal
HOP-92 NSCLC = system: HOP-92 NSCLC
KM12 colon = system: KM12 colon
LOX IMVI melanoma = system: LOX IMVI melanoma
NCI-H226 lung = system: NCI-H226 lung
OVCAR-4 ovarian = system: OVCAR-4 ovarian
SF-268 CNS = system: SF-268 CNS
SF-295 CNS = system: SF-295 CNS
SN12C renal = system: SN12C renal
MDA-MB-231 breast = system: MDA-MB-231 breast

SMILES | TGI (CAKI-1 renal) | TGI (HOP-92 NSCLC) | TGI (KM12 colon) | TGI (LOX IMVI melanoma) | TGI (NCI-H226 lung) | TGI (OVCAR-4 ovarian) | TGI (SF-268 CNS) | TGI (SF-295 CNS) | TGI (SN12C renal) | GI50 (HOP-92 NSCLC) | GI50 (KM12 colon) | GI50 (MDA-MB-231 breast) | TGI (MDA-MB-231 breast) | GI50 (NCI-H226 lung) | GI50 (OVCAR-4 ovarian) | GI50 (SF-268 CNS) | GI50 (SF-295 CNS) | GI50 (SN12C renal) | GI50 (CAKI-1 renal) | GI50 (LOX IMVI melanoma)
CNC(C)Cc1ccc(O)cc1 (stereo not given) | > 100 µM | > 100 µM | > 100 µM | > 100 µM | > 100 µM | > 100 µM | > 100 µM | > 100 µM | > 100 µM |  |  |  |  |  |  |  |  |  |  | 
CC(=O)OCC(OC(C)=O)C(OC(C)=O)C(OC(C)=O)C(=O)CNn1c(-c2ccccc2Cl)nc2ccc(Br)cc2c1=O (stereo not given) | > 100 µM |  | > 100 µM | > 100 µM |  | > 100 µM | > 100 µM | > 100 µM | > 100 µM |  |  |  |  |  |  |  |  |  |  | 
C=C1C(=O)O[C@H]2[C@H]1CC/C(COC(=O)/C=C/c1c[nH]c3ccccc13)=C\CC[C@@]1(C)O[C@@H]21 |  | 0.369 µM | 1.64 µM |  | 0.702 µM | 0.546 µM | 0.569 µM | 3.14 µM | 0.478 µM | 0.156 µM | 0.402 µM | 0.177 µM | 0.374 µM | 0.23 µM | 0.207 µM | 0.229 µM | 1.62 µM | 0.197 µM |  | 
[N-]=[N+]=Nc1c(Br)c(=O)[nH]c(=O)n1COCCO | > 100 µM | > 100 µM | > 100 µM | > 100 µM |  | > 100 µM | > 100 µM | > 100 µM | > 100 µM |  |  |  |  |  |  |  |  |  |  | 
COc1cc(C(=O)C/C(CCC(=O)Nc2ccc(Cl)cc2Cl)=N/Nc2nnc(C)n2N)ccc1O | > 100 µM | > 100 µM | > 100 µM | > 100 µM | > 100 µM |  | > 100 µM | > 100 µM | > 100 µM |  |  |  |  |  |  |  |  |  |  | 
CCCNc1cccc(-n2ncc3c(N/N=C/c4ccncc4)ncnc32)c1 | > 25 µM | > 25 µM | > 25 µM |  | > 25 µM | > 25 µM | > 25 µM | > 25 µM | > 25 µM | 9.32 µM | 1.77 µM | > 25 µM | > 25 µM | > 16.5 µM | > 9.88 µM | 8.24 µM | 3.58 µM | > 25 µM | 1.1 µM | 
COC(=O)C1=C(c2cc(OC)c(OC)c(OC)c2)O[C@H](c2ccc3c(c2)OCO3)[C@H]1COC(C)=O | > 100 µM | 54.4 µM | > 100 µM | > 100 µM | > 100 µM | > 100 µM |  | 41 µM | 96.2 µM |  |  |  |  |  |  |  |  |  |  | 
O=C(O)Cc1cc(=O)[nH]c2c1C(=O)CCC2 |  | > 100 µM | > 100 µM |  | > 100 µM |  | > 100 µM | > 100 µM | > 100 µM |  |  |  |  |  |  |  |  |  |  | 
CCC1OC(/C(C)=C/C(C)/C=C/C2C(C)C2/C=C/C2OC(CC(=O)O)CC(O)C2O)CC=C1C (stereo not given) | > 50 µM |  | > 50 µM | > 50 µM | > 50 µM | > 50 µM | > 50 µM | > 50 µM | > 50 µM |  | > 50 µM |  |  | > 50 µM | > 50 µM | > 50 µM | > 50 µM | > 50 µM | > 50 µM | > 50 µM
O=c1oc2cc(OS(=O)(=O)c3ccccc3)ccc2c2c1CCCCC2 | > 100 µM |  |  | > 100 µM | > 100 µM | > 100 µM | > 100 µM | > 100 µM | > 100 µM |  |  | > 100 µM | > 100 µM | > 100 µM | 4.58 µM | > 100 µM | > 100 µM | 7.24 µM | 7.38 µM | 8.71 µM
COC(=O)/C(=N/O)C(C(=O)OC)C(=O)C(=O)Nc1c(Cl)cc(C)cc1S(=O)(=O)O (stereo not given) | > 100 µM | > 100 µM | > 100 µM | > 100 µM | > 100 µM | > 100 µM | > 100 µM | > 100 µM | > 100 µM |  |  |  |  |  |  |  |  |  |  | 
O=C(O)c1oc2cccc3c2c1CCC3 |  | > 100 µM | > 100 µM | > 100 µM |  | > 100 µM | > 100 µM | > 100 µM | > 100 µM |  |  |  |  |  |  |  |  |  |  | 
COc1cc(CC2CC(c3ccc4c(c3)OCO4)OC2=O)cc(OC)c1OC (stereo not given) | > 100 µM | > 100 µM | > 100 µM | > 100 µM | > 100 µM |  | > 100 µM | > 100 µM | > 100 µM |  |  |  | > 100 µM |  |  |  |  |  |  | 
CCCCN(CCCC)C(=O)C(=O)CC(=O)/C=C/c1ccccc1 | > 100 µM | > 100 µM | > 100 µM | > 100 µM | > 100 µM | > 100 µM | > 100 µM | > 100 µM | > 100 µM |  |  |  |  |  |  |  |  |  |  | 
COC(=O)c1nn(C(=N)c2ccc(Cl)cc2)c2c1CCCCC2 | > 100 µM | > 100 µM | > 100 µM | > 100 µM | > 100 µM | > 100 µM | > 100 µM | > 100 µM | > 100 µM |  |  |  |  |  |  |  |  |  |  | 
O=C1NC(O)CCN1C1CC(O)C(CO)O1 (stereo not given) | > 100 µM | > 100 µM | > 100 µM | > 100 µM | > 100 µM |  | > 100 µM | > 100 µM | > 100 µM |  |  |  | > 100 µM |  |  |  |  |  |  | 
Cc1c(N)nc(C(CC(N)=O)NCC(N)C(N)=O)nc1C(=O)NC(C(=O)NC(C)C(O)C(C)C(=O)NC(C(=O)NCCc1nc(-c2nc(C(=O)NCCCNCCCCN)cs2)cs1)C(C)O)C(OC1OC(CO)C(O)C(O)C1OC1OC(CO)C(O)C(OC(N)=O)C1O)c1cnc[nH]1 (stereo not given) | 2.38 µM |  | > 10 µM | 3.47 µg/mL and 10.3 µg/mL and > 10 µM |  | > 10 µM | 23.8 µg/mL and > 10 µM | 12 µg/mL and 4.04 µM | 27.6 µg/mL and > 10 µM | 3.38 µg/mL | 40 µg/mL |  |  | 9.65 µg/mL and 3.45 µg/mL |  | 2.55 µg/mL and 0.324 µg/mL | 0.603 µg/mL and 0.261 µg/mL | 3.12 µg/mL and 2.58 µg/mL | 0.845 µg/mL and 2.94 µg/mL | 0.324 µg/mL and 0.149 µg/mL
N[C@H](C(=O)O)[C@@H](Cl)CC(=O)O | > 100 µM | > 100 µM | > 100 µM | > 100 µM | > 100 µM | > 100 µM | > 100 µM | > 100 µM | > 100 µM |  |  |  |  |  |  |  |  |  |  | 
CCOC(=O)NC(=O)c1cn(C2OC(CO)C(O)C2O)c(=O)[nH]c1=O (stereo not given) | > 100 µM |  | > 100 µM | > 100 µM | > 100 µM | > 100 µM | > 100 µM | > 100 µM | > 100 µM |  |  |  |  |  |  |  |  |  |  | 
c1ccc(-c2cnc3nc4ccccc4nc3n2)cc1 | 3.53 µM |  | 21.8 µM | 20.1 µM | 19.7 µM | 19.5 µM | 17.8 µM | 25.3 µM | 31.5 µM |  |  |  | 17.4 µM |  |  |  |  |  |  | 
